Patent US20050256040A1, “Artificially designed pore-forming proteins with anti-tumor effects” (Buck Institute, priority 2004, published 2005)
“Also recorded” adds a separate entry of the source. Like-named read-outs stand apart in the source and are kept apart here.

How the values were obtained:
KS1767 cells [1] = assay: Matrigel / polymeric fibronectin assay of cell viability; format: cell-based, human; conditions: for effect on KS1767 cell layer: regardless of the presence of matrigel
Protocol: To determine the mechanisms responsible for selective anti-tumor activity of SGP in vivo, a matrigel assay (to mimic extracellular matrix) was developed. Cell viability was determined by morphology (see Ellerby, et al. (1999) supra.; and Ellerby, et al. (1997) supra.). KS1767 cells were incubated with SGP at 1 mM in the presence or absence of matrigel or polymeric fibronectin (sFN). The fibronectin polymer was produced as previously described (see Pasqualini, et al. (1996) Nature Med. 2, 1197-1203). Briefly, cell culture medium was aspirated from adherent cells. Cells were then coated with matrigel (gently pipetted on each well to completely coat the entire cell layer), or the fibronectin polymer, and incubated at 37° C. for 10 min. SGP was added and the cells were viewed on an inverted microscope (Nikon TE 300). KS1767 cells were also exposed to doxorubicin (20 μg/well) or SGP in the presence or absense of matrigel for 24 h. Cell viability (%) was evaluated after no treatment (medium or matrigel alone), incubation with SGP or doxorubicin. Cell death was evaluated morphologically (see Ellerby, et al. (1999) supra.; and Ellerby, et al. (1997) supra.), and cell viability was compared relative to untreated controls (no matrigel) or absence of SGP.

KS1767 cells [2] = format: cell-based; conditions: for CC50: KS 1767 cells, read-out: LC50 at 30 min; for toxicity to mammalian cultured cells compared with SGP: Table I cell types
Protocol: All cell lines were obtained commercially. The Kaposi's sarcoma-derived cell line KS1767 and the breast carcinoma cell line MDA-MB-435 have been described previously (see, for example, Herndier, et al. (1994) Aids 8, 575-581; Reisbach, et al. (1982) Anticancer Res. 2, 257-260; and Ellerby, et al. (1999) Nat. Med. 5, 1032-1038) and were cultured in 10% fetal bovine serum/Dulbecco's modified Eagle's medium, containing antibiotics.
(§1) To evaluate the effects of SGP on cell membranes multiple human cell lines of different origins were treated (see Table I, which presents a comparison of LC50 data for SGP, SGP-L, and SGP-E on a variety of cultured human cell types).
(§2) Cell viability was determined by morphology (see Ellerby, et al. (1999) Nat. Med. 5, 1032-1038; and Ellerby, et al. (1997) J. Neurosci. 17, 6165-6178). For viability assays, KS1767 cells were incubated with the concentrations of SGP, SGP-L, SGP-E, or control peptides indicated in the figures and in Table I. Briefly, at the given time points, cell culture medium was aspirated from adherent cells. Cells were then gently washed once with PBS at 37° C. A 20-fold dilution of the dye mixture (100 μg/ml acridine orange and 100 μg/ml ethidium bromide) in PBS was then gently pipetted on the cells and viewed on an inverted microscope (Nikon TE 300). […] Percent viability was calculated relative to untreated cells.

[3] = Cell viability LC50, CADMEC cells; format: cell-based, human; conditions: human
Protocol: as §1, §2

[4] = Cell viability LC50, cell line not given in Table I; format: cell-based; conditions: for CC50: cell line cell empty (row under KS 1767), read-out: LC50 at 30 min
Protocol: as §1, §2

[5] = cited from earlier work; for ability to disrupt synthetic membranes: Matsumoto et al. 2001
[6] = test system: H358 lung carcinoma xenografts; assay: Anti-tumor activity, H358 lung carcinoma xenografts in nude mice; format: in vivo, nude/nude Balb/c mice
From the text: (§3) Data are shown for human PC3-derived prostate carcinoma and H358 lung carcinoma. Tumor cells were implanted on the flank at the start of the experiments. Mice were divided in similar groups based on matched tumor volumes at the start of the experiment (open circles).
(§4) MDA-MB-435-, KS1767-, PC-3-, and H358-derived human tumor xenografts were established in 2-month-old female or male (according to the tumor type), nude/nude Balb/c mice (Jackson Labs, Bar Harbor, Me.) by administering […] per mouse in a 200 μl volume of serum-free Dulbecco's modified Eagle's medium into the mammary fat pad or on the flank (see Ellerby, et al. (1999) Nat. Med. 5, 1032-1038). The mice were anesthetized with Avertin as described (see Ellerby, et al. (1999) supra.). SGP was administered directly into the center of the tumor mass at a concentration of 100 μM or 1 mM given slowly in 5 μl increments, for a total volume of 40 μl. Measurements of tumors were taken by caliper under anesthesia and used to calculate tumor volume (see Ellerby, et al. (1999) supra.). Animal experimentation was reviewed and approved by the Institutional Animal Care and Use Committee.

[7] = Cell viability LC50, HPAEC cells; format: cell-based; conditions: human, HPAEC (Human Pulmonary Artery Endothelial Cells)
Protocol: as §1, §2

[8] = Cell viability LC50, HUVEC cells; format: cell-based; conditions: human, HUVEC (Human Umbilical Cord Vascular Endothelial Cells)
Protocol: as §1, §2

[9] = Cell viability LC50, 293 cells; format: cell-based; conditions: human, 293 cells (human kidney cells)
Protocol: as §1, §2

[10] = test system: human PC3-derived prostate carcinoma xenografts; assay: Anti-tumor activity, PC-3 prostate carcinoma xenografts in nude mice; format: in vivo, nude/nude Balb/c mice; conditions: PC-3 tumors, 10 weeks
From the text: as §3, §4

normal skin = assay: Skin toxicity in nude mice; format: in vivo; conditions: 100 μM, injected sub-cutaneously or intradermally under normal skin
Protocol: 2-month-old female nude mice (Jackson Labs) were anesthetized with Avertin. 10 μl of 100 μM SGP or PBS was injected into the skin. The injected areas were monitored for 2 weeks.

[11] = test system: human MDA-MB-435-derived breast carcinoma xenografts; assay: Anti-tumor activity, MDA-MB-435 breast carcinoma xenografts in nude mice; format: in vivo, nude/nude Balb/c mice; conditions: for tumor appearance: 4 weekly treatments at 40 μl/week, starting volume 100 mm^3
Protocol: as §4
In the first set of experiments, tumors were allowed to form after injection of a breast carcinoma cell line (MDA-MD-435) and then treated with local injections of SGP. […] Starting tumor volumes ranged from about 100 mm^3 to large sizes of about 600 mm^3. Tumor-bearing mice were given four weekly treatments of PBS, or 100 μM or 1 mM SGP (40 μl/treatment given in 5 μl increments). After a 4-week period without treatment, the tumor volumes were measured at 8 weeks. The average tumor volume at the end of the experiment in the SGP-treated groups was […] than the average volume seen in the PBS-treated group (FIG. 3A). There was no difference between the average tumor volumes of the 2 SGP treatment groups. Mice treated with SGP remained tumor-free for up to 4 months after tumor implantation, before being euthanized for histological evaluation. These observations indicate that both primary tumor growth (FIG. 4) and metastases were inhibited. […] By successfully treating a large number of mice and testing the effects of SGP on several different tumor xenograft models (including carcinomas, sarcomas, and melanomas), the therapeutic properties of SGP were firmly established. […] It was also evaluated whether SGP produced adverse side effects such as necrosis when injected under normal skin.
MDA-MB-435-derived breast carcinoma and KS1767-derived Kaposi sarcoma xenografts and organs were removed, fixed in Bouin solution, embedded in paraffin for preparation of tissue sections, and stained with hematoxylin and eosin (see Ellerby, et al. (1999) supra.).

[12] = test system: CADMEC = Cell Applications Dermal Microvessel Endothelial Cells; assay: Cell viability LC50, CADMEC cells; format: cell-based, human; conditions: read-out: LC50 at 30 min
Protocol: as §1, §2

Q: With `CCO` [ethanol, reference compound] as the molecule, how does the “effect on KS1767 cells” value (KS1767 cells [1]; in the presence of polymeric fibronectin (sFN)) read?
A: induced massive cell death

Q: And the “effect on KS1767 cell layer” value (KS1767 cells [1])?
A: damaged the cell layer

Q: Which “effect on KS1767 cells” value (KS1767 cells [2]; 100 μM, 60 s) does the source give for “DLSLARLATARLAI [negative control peptide, reference compound]” here?
A: unaffected

Q: What about the “effect on KS1767 cells” value (KS1767 cells [2]; 100 μM, 24 h) of the same molecule?
A: unaffected

Q: What about the “effect on KS1767 cells” value (KS1767 cells [2]; 100 μM, after 60 min) of the same molecule?
A: unaffected

Q: Which “effect on KS1767 cell viability” value (KS1767 cells [1]; 20 μg/well, 24 h, in the presence of matrigel) does the source give for `COc1cccc2c1C(=O)c1c(O)c3c(c(O)c1C2=O)C[C@@](O)(C(=O)CO)C[C@@H]3O[C@H]1C[C@H](N)[C@H](O)[C@H](C)O1` [doxorubicin, reference compound] here?
A: decreased cell viability

Q: And the “effect on KS1767 cell layer” value (KS1767 cells [1])?
A: damaged the cell layer

Q: With “Ac-AAAAAAWAAAAGPNGLYLKKKLLKKLLKLLGNPGLKLYKKLLKKLLLKLGNPGLLKLYKKLLKKLLKLL-OH [SGP, small globular protein]” as the molecule, how does the CC50 at 30 min [3] read?
A: 5 µM

Q: What about the “effect on KS1767 cells” value (KS1767 cells [2]; 3 μM, 24 h) of the same molecule?
A: classic morphological signs of apoptosis

Q: What about the “effect on KS1767 cells” value (KS1767 cells [2]; 10 μM, within 60 s) of the same molecule?
A: extremely rapid non-necrotic, non-apoptotic cell death

Q: And the “effect on KS1767 cells” value (KS1767 cells [2]; 10 μM, within 60 min)?
A: necrosis

Q: What about the “effect on KS1767 cells” value (KS1767 cells [2]; below 5 μM, over 24-hour period, confirmed by caspase-3 activation assay) of the same molecule?
A: induction of apoptosis

Q: What about the “concentration affecting tumor derived cells as well as normal cells” value (KS1767 cells [2]; cultured cells, tumor derived and normal) of the same molecule?
A: ~3 µM

Q: And the CC50 at 30 min ([4]; human)?
A: 4 µM

Q: What about the “pore size (conductance) in synthetic bilayers” value ([5]; Lee et al. 1997) of the same molecule?
A: 14 pS

Q: What about the “tumor volume compared with PBS-treated tumors” value ([6]; H358 tumors, 9 weeks) of the same molecule?
A: smaller than control PBS-treated tumors

Q: What about the tumor appearance ([6]; after 6 weekly treatments at 40 μl/week, FIG. 5C) of the same molecule?
A: have disappeared

Q: And the CC50 at 30 min [7]?
A: 5 µM

Q: And the “effect on KS1767 cells” value (KS1767 cells [1]; 1 mM, in the presence of matrigel)?
A: remain unaffected

Q: And the “effect on KS1767 cell viability” value (KS1767 cells [1]; 1 mM, in the presence of polymeric fibronectin (sFN))?
A: ineffective; also recorded: remain unaffected

Q: And the “effect on KS1767 cells” value (KS1767 cells [1]; 1 mM, without matrigel)?
A: decreases cell viability

Q: What about the “SGP activity in the presence of fibronectin alone” value (KS1767 cells [1]; fibronectin alone (not polymeric), control) of the same molecule?
A: did not prevent SGP activity

Q: And the CC50 at 30 min [8]?
A: 7 µM

Q: What about the CC50 at 30 min [9] of the same molecule?
A: 5 µM

Q: And the “tumor volume compared with PBS-treated tumors” value [10]?
A: smaller than control PBS-treated tumors

Q: What about the skin toxicity (normal skin) of the same molecule?
A: relatively non-toxic to normal skin

Q: What about the tumor appearance ([11]; 100 μM) of the same molecule?
A: flattened and virtually disappeared

Q: And the “histopathology of tumor xenografts” value ([11]; 100 μM, harvested at 8 weeks after treatment initiation)?
A: widespread cell death; also recorded: extensive apoptosis

Q: What about the tumor appearance ([11]; 1 mM) of the same molecule?
A: flattened and virtually disappeared

Q: What about the “difference between average tumor volumes of 100 μM and 1 mM groups” value ([11]; 8 weeks) of the same molecule?
A: no difference

Q: And the “histological analysis of the major organs” value ([11]; SGP-treated mice)?
A: no overt pathology

Q: What about the “time mice remained tumor-free after tumor implantation” value ([11]; before being euthanized for histological evaluation) of the same molecule?
A: up to 4 months

Q: What about the “tumor volume compared with PBS-treated controls” value ([11]; four weekly intratumoral treatments, 100 μM or 1 mM, 40 μl, measured at 8 weeks) of the same molecule?
A: significantly smaller; also recorded: smaller than controls

Q: And the “primary tumor growth and metastases” value ([11]; mouse, in vivo)?
A: inhibited

Q: And the “surgical examination of the tumor sites” value ([11]; mouse, in vivo)?
A: no sign of tumor cells

B1: SGP-E: SGP variant SEQ ID NO:3; lysines replaced by glutamic acids; negative control (peptide)
chain: AAAAAAWAAAAGNPGLELLKKLYKKLLELLGNPGLELLKKYLKKLLELLGNPGLLELLKKYLKKLLELL
Q: For B1, which CC50 [12] is on record?
A: 30 µM

Q: And the CC50 (KS1767 cells [2])?
A: 30 µM

Q: And the “toxicity to mammalian cultured cells compared with SGP” value (KS1767 cells [2])?
A: substantially less toxic

Q: And the CC50 [4]?
A: 30 µM

Q: And the “ability to disrupt synthetic membranes” value [5]?
A: diminished

B2: SGP-L: SGP variant SEQ ID NO:4; central all alanine helix replaced by an all leucine helix; negative control (peptide)
chain: LLLLLLWLLLLGPNGLKLYKKLLKKLLKLLGNPGLKLYKKLLKKLLLKLGNPGLLKLYKKLLKKLLKLL
Q: What does the source list for B2?
A: CC50 [12]: 60 µM; CC50 (KS1767 cells [2]): 60 µM; toxicity to mammalian cultured cells compared with SGP (KS1767 cells [2]): substantially less toxic; CC50 [4]: 60 µM; ability to disrupt synthetic membranes [5]: diminished
